In US20250250303A1 (THE TRUSTEES OF COLUMBIA UNIVERSITY IN THE CITY OF NEW YORK, priority 2022, published 2025):
Bridge positions count the residues as written; N and C are the ends. Peptide text beside a SMILES is read from it.

How the values were obtained:
[1] = target: T1, IR K484E/L552A (Homo sapiens, UniProt P06213, K511E/L579A); assay: IR activation assay in 293 FT cells, IR K484E/L552A double mutant; assay type: cell-based; conditions: 10 nM for 10 min
T1 construct: expressed in transfected cells; host or cells: 293 FT cells

[2] = target: T2, IR F497A (Homo sapiens, UniProt P06213, F524A); assay: IR activation assay in 293 FT cells, IR F497A mutant; assay type: cell-based; conditions: 10 min
T2 construct: expressed in transfected cells; host or cells: 293 FT cells

[3] = target: T3, IR E697A (Homo sapiens, UniProt P06213, E724A); assay: IR activation assay in 293 FT cells, IR E697A mutant; assay type: cell-based; conditions: 10 nM for 10 min
T3 construct: expressed in transfected cells; host or cells: 293 FT cells

[4] = system: C2C12 cells; assay: MTT assay in C2C12 cells; assay type: cell-based
Procedure: To examine the function of […] on cell viability and growth, an MTT assay was performed in C2C12 cells.

[5] = Chronic treatment by osmotic minipump; assay type: in vivo, mice
Source text: 2-month-old male mice were implanted with osmotic minipump releasing Humulin (0.2 U/day), S597 (0.3 U/day), or S597-S20D (0.3 U/day). […] Hepes, N=7; Humulin, N=8; S597, N=7; S597-S20D, N=4. […] Hepes, N=7; Humulin, N=8; S597, N=9; S597-S20D, N=4. Two-way ANOVA followed by Tukey's multiple comparisons test. […] Mean±SEM. Hepes, N=8; Humulin, N=7; S597, N=9; S597-S20D, N=5. […] Hepes, N=4; Humulin and S597 analogs, N=5. two-tailed Student's t-test. All graphs show Mean±SEM.
To examine the long-term effects of S597 in vivo, C57BL/6J WT mice were implanted with osmotic minipumps releasing either HEPES, Humulin, or mimetics. […] Consistent with previous work, chronic treatment of Humulin increased body weight (FIGS. 11E, 11F).

[6] = system: T47D; assay: IR signaling in cancer cells, T47D; assay type: cell-based; conditions: 10, 100 or 300 nM for 10 minutes
[7] = assay type: in vivo, mice; conditions: 50 U/kg once daily for three days; 2 g glucose/kg after 6 hr. fast
Procedure: For oral glucose tolerance test, mice were fasted for 6 hr. and their blood glucose levels (T=0) were measured with tail bleeding using a glucometer (AlphaTRAK). After then, glucose (2 g/kg body weight) was administered by oral gavage. Blood glucose levels were measured at the indicated time points after glucose administration. For FIG. 31F, 2 months old male mice were fasted for 14 hr. […] One hour later livers were collected.

[8] = Zucker diabetic fatty rats; cited from earlier work
[9] = target: insulin-like growth factor 1 receptor (IGF1R) (Homo sapiens, UniProt P08069); conditions: previous studies; cited from earlier work
[10] = system: 3T3-L1 and IR-transfected L6 myoblasts; conditions: cited from earlier work
[11] = target: T4, IR D707A (Homo sapiens, UniProt P06213, D734A); assay: IR activation assay in 293 FT cells, IR D707A mutant; assay type: cell-based; parameters: expressed in transfected cells; host or cells: 293 FT cells; conditions: 10 min
[12] = target: T4, IR D707A; assay: IR signaling in IR-D707A MEFs (tamoxifen-inducible IR knockout); assay type: cell-based, mouse; parameters: expressed in transfected cells; host or cells: mouse embryonic fibroblasts from IR F/F; CRE-ERT mice, retroviral pBabe-puro, tamoxifen-treated; conditions: wide range of concentrations
Procedure: Fresh 0.25% trypsin-EDTA was added. […] The medium was changed the next day to remove debris and floating cells.

T4 sequence (P06213 28-1370 isoform P06213-2 D734A limits assumed): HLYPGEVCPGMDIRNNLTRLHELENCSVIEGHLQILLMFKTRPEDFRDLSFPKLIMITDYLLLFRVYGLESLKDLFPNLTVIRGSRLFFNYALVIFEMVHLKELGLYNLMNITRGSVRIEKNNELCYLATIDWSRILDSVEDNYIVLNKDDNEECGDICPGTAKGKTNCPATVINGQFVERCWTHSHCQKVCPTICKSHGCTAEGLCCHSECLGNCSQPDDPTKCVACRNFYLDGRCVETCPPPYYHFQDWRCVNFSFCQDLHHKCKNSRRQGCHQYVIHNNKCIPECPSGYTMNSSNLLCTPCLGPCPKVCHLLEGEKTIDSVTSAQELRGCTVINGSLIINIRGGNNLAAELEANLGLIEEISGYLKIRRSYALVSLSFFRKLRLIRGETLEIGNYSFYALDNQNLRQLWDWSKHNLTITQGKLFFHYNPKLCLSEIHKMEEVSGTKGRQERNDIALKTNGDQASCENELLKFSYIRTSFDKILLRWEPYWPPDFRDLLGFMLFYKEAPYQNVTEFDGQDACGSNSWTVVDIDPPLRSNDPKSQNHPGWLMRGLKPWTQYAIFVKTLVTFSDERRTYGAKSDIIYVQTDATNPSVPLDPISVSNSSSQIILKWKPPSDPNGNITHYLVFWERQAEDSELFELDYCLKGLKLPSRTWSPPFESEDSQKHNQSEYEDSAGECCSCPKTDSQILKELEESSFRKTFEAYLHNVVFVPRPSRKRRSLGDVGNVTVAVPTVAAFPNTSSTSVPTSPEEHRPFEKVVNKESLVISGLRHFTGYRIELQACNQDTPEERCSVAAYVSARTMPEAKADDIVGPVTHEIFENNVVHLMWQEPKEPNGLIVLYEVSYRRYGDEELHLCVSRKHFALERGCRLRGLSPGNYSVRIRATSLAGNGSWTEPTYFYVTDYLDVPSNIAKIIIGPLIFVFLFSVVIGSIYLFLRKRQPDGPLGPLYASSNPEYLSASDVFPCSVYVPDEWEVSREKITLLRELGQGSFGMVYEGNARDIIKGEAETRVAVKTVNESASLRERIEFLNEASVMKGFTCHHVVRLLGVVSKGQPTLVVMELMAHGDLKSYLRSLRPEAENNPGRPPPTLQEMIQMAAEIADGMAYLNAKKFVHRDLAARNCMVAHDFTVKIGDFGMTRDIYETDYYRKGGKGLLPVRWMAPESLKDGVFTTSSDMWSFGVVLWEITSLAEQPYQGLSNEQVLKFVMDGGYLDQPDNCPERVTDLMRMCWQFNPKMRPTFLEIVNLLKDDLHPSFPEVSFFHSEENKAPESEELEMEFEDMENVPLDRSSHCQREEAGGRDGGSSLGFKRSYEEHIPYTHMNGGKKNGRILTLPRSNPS
T4 sequence (P06213 763-1382 partner limits assumed): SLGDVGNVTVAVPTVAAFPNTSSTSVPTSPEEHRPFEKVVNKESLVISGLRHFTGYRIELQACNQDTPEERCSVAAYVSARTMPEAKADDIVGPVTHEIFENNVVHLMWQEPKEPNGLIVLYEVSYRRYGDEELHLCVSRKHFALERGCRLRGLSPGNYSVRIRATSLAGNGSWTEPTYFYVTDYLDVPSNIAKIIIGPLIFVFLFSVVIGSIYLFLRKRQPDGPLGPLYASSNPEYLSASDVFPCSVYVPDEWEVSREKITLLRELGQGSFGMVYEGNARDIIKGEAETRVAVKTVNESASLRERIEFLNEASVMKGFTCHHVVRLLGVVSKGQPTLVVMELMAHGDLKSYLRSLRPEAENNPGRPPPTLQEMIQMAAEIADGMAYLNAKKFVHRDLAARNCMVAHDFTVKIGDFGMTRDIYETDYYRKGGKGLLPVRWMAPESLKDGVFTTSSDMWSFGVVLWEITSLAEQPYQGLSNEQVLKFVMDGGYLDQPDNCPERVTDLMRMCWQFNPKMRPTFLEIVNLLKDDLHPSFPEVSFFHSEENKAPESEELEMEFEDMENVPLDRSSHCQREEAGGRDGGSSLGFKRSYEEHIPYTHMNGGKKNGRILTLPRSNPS
T2 sequence (P06213 28-1370 isoform P06213-2 F524A limits assumed): as the sequence (P06213 28-1370 isoform P06213-2 D734A limits assumed) above, with F497A, A707D counted along it
T2 sequence (P06213 763-1382 partner limits assumed): as the sequence (P06213 763-1382 partner limits assumed) above
insulin-like growth factor 1 receptor (IGF1R), sequence (P08069 31-736 limits assumed, species assumed): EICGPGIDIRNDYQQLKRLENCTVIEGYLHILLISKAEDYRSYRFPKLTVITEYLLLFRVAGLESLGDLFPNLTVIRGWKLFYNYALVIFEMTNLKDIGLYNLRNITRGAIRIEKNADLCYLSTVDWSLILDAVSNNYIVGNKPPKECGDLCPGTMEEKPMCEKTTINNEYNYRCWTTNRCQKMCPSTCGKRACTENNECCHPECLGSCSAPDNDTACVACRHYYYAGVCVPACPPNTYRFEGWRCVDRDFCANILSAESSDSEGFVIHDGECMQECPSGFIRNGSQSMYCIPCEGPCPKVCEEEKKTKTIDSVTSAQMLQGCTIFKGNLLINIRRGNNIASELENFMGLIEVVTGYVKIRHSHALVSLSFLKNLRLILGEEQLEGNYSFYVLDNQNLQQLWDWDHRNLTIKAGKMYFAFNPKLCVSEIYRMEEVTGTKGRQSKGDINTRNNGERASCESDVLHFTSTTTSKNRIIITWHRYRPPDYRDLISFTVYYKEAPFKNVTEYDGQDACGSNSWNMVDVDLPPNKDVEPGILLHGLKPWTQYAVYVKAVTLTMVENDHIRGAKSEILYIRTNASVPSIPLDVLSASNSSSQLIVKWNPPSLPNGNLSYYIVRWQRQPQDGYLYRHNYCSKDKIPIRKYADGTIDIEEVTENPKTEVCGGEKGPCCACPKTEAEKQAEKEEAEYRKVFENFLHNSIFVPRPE
T1 sequence (P06213 28-1370 isoform P06213-2 K511E/L579A limits assumed): as the sequence (P06213 28-1370 isoform P06213-2 D734A limits assumed) above, with K484E, L552A, A707D counted along it
T1 sequence (P06213 763-1382 partner limits assumed): as the sequence (P06213 763-1382 partner limits assumed) above
T3 sequence (P06213 28-1370 isoform P06213-2 E724A limits assumed): as the sequence (P06213 28-1370 isoform P06213-2 D734A limits assumed) above, with E697A, A707D counted along it
T3 sequence (P06213 763-1382 partner limits assumed): as the sequence (P06213 763-1382 partner limits assumed) above

CC[C@H](C)[C@H](NC(=O)[C@H](CCC(N)=O)NC(=O)[C@H](C)NC(=O)[C@H](Cc1c[nH]c2ccccc12)NC(=O)[C@H](CCC(=O)O)NC(=O)[C@H](CCC(=O)O)NC(=O)[C@H](CCC(=O)O)NC(=O)[C@H](CC(C)C)NC(=O)[C@H](CO)NC(C)=O)C(=O)N[C@@H](CCC(=O)O)C(=O)N[C@H]1CSSC[C@@H](C(=O)N2CCC[C@H]2C(=O)N[C@@H](CO)C(=O)N[C@@H](CCC(=O)O)C(=O)N[C@@H](CO)C(=O)N[C@@H](Cc2ccccc2)C(=O)N[C@@H](Cc2ccc(O)cc2)C(=O)N[C@@H](CC(=O)O)C(=O)N[C@@H](Cc2c[nH]c3ccccc23)C(=O)N[C@@H](Cc2ccccc2)C(=O)N[C@@H](CCC(=O)O)C(=O)N[C@@H](CCCNC(=N)N)C(=O)N[C@@H](CCC(N)=O)C(=O)N[C@@H](CC(C)C)C(N)=O)NC(=O)CNC(=O)[C@H](CCCNC(=N)N)NC(=O)CNC(=O)[C@H](Cc2ccc(O)cc2)NC(=O)[C@H](C(C)C)NC(=O)[C@H](CCC(=O)O)NC1=O [S597] (Ac-SLEEEWAQIECEVYGRGCPSESFYDWFERQL-NH2; disulfide 11-18)
IR activation (pY IR) [1]: could not be activated efficiently
IR activation (pY IR) [2]: fully activated
IR activation (pY IR) [3]: fully activated
cell viability and growth [4]: does not promote cell proliferation as efficiently as insulin
body weight gain [5]: gained less than control mice
weight gain and fat mass ([5]; FIG. 11, preliminary data): reduces weight gain and fat mass relative to insulin
IR signaling [6]: failed to activate
area under curve (AUC) for blood glucose during OGTT [7]: No significant
blood glucose [8]: lowers
activation of IGF1R [9]: does not activate
MAPK pathway [10]: largely inactive
PI3K-AKT pathway [10]: selectively activates
IR activation (pY IR) [11]: fully activated
phosphorylation of AKT (pAKT) [12]: significantly increased
phosphorylation of ERK (pERK) [12]: significantly increased
phosphorylation of IR (pY IR) [12]: significantly increased
